For 40 compounds, IC50 results are on record in patent US9067922B2, “Chemical compounds” (Pfizer Limited, priority 2013, dated 2015).

Where only a bound is given, the exact number is not on record here.

As usually defined, the IC50 is the concentration that gives 50% inhibition. Low readings indicate greater potency in that assay, high ones weaker potency in that assay.

URAT-1 transporter, sequence (Q96S37 other isoform, or with tags, fused parts or gaps): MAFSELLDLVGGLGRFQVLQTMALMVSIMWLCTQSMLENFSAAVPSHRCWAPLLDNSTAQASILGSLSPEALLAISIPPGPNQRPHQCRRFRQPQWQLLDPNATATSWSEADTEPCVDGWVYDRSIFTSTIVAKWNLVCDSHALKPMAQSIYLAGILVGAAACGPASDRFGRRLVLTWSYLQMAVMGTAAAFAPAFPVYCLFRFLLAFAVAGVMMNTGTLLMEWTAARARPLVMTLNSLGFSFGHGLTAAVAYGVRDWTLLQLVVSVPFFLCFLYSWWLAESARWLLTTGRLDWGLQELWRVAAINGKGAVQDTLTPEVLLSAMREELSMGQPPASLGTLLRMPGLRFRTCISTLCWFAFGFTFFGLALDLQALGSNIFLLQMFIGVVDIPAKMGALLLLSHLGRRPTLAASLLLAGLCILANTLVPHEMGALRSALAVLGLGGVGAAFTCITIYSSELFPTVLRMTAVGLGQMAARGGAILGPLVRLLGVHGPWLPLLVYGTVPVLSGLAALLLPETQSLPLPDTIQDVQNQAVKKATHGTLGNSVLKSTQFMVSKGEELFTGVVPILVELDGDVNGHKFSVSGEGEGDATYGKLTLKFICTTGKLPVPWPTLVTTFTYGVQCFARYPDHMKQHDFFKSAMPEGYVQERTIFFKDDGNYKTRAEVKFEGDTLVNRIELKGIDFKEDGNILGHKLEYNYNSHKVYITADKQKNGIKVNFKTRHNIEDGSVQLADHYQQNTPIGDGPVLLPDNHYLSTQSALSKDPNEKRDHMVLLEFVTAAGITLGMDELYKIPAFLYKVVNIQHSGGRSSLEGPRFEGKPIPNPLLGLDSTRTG

This assay concerns the target URAT-1 transporter (Homo sapiens (Human), UniProt Q96S37). Briefly: URAT-1 inhibitor activity: [14C]-uric acid uptake in CHO-URAT1(L)GFP#8 (CHO#8) cells, scintillation proximity. The format is cell-based. Conditions: inhibition of [14C]-uric acid (30 nM) uptake into CHO#8 cells; compound 0 to 10 μM; 4 parameter logistic fit. An outline of the steps:
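CHO cells stably expressing human URAT1 long isoform–eGFP fusion, pre-incubated 1 h in chloride-containing buffer pH 7.4, then given 30 nM [14C]-uric acid with compound (0–10 μM, 0.25% DMSO) in chloride-free gluconate buffer pH 7.4. Uptake measured by scintillation proximity on Cytostar plates.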
For `N#Cc1ccc(Oc2ccc(S(=O)(=O)Nc3ccc(F)cn3)cc2C#N)c(OC(F)F)c1` [Example 67, 3-cyano-4-[4-cyano-2-(difluoromethoxy)phenoxy]-N-(5-fluoropyridin-2-yl)benzenesulfonamide], the IC50 was determined as 3520 nM. To `COc1cccc(Oc2ccc(S(=O)(=O)Nc3ccc(F)cn3)cc2C#N)c1C` [Example 181, 3-cyano-N-(5-fluoropyridin-2-yl)-4-(3-methoxy-2-methylphenoxy)benzenesulfonamide] belongs more than 10000 nM.

For the compound `N#Cc1cc(S(=O)(=O)Nc2ccc(F)cn2)ccc1Oc1ccccn1` [Example 187, 3-cyano-N-(5-fluoropyridin-2-yl)-4-(pyridin-2-yloxy)benzenesulfonamide], the 50% inhibitory concentration (IC50) was more than 10000 nM.

For the compound `Cc1ccc(Oc2ccc(S(=O)(=O)Nc3ccc(F)cn3)cc2C#N)c(F)c1F` [Example 128, 3-cyano-4-(2,3-difluoro-4-methylphenoxy)-N-(5-fluoropyridin-2-yl)benzenesulfonamide], the 50% inhibitory concentration (IC50) was more than 10000 nM.

Consider `N#Cc1cc(Cl)cc(Oc2ccc(S(=O)(=O)Nc3ccc(F)cn3)cc2C#N)c1` [Example 62, 4-(3-chloro-5-cyanophenoxy)-3-cyano-N-(5-fluoropyridin-2-yl)benzenesulfonamide], for which inhibition was half-maximal at 27 nM (IC50). To `N#Cc1cc(S(=O)(=O)Nc2ccc(F)cn2)ccc1Oc1cccc(C#N)c1F` [Example 75, 3-cyano-4-(3-cyano-2-fluorophenoxy)-N-(5-fluoropyridin-2-yl)benzenesulfonamide] belongs 2210 nM; to `N#Cc1cc(S(=O)(=O)Nc2ccc(F)cn2)ccc1Oc1cnc(C2CC2)c(Cl)c1` [Example 180, 4-[(5-chloro-6-cyclopropylpyridin-3-yl)oxy]-3-cyano-N-(5-fluoropyridin-2-yl)benzenesulfonamide], 877 nM. To `N#Cc1ccc(Oc2ccc(S(=O)(=O)Nc3ccnnc3)cc2C#N)cc1Cl` [Example 94, 4-(3-chloro-4-cyanophenoxy)-3-cyano-N-(pyridazin-4-yl)benzenesulfonamide] belongs more than 10000 nM. To `Cc1cc(Oc2ccc(S(=O)(=O)Nc3ccc(F)cn3)cc2C#N)cc(Cl)c1C` [Example 171, 4-(3-chloro-4,5-dimethylphenoxy)-3-cyano-N-(5-fluoropyridin-2-yl)benzenesulfonamide] belongs 215 nM; to `Cc1ncccc1Oc1ccc(S(=O)(=O)Nc2ccc(F)cn2)cc1C#N` [Example 184, 3-cyano-N-(5-fluoropyridin-2-yl)-4-[(2-methylpyridin-3-yl)oxy]benzenesulfonamide], 385 nM.

In the case of `CCOc1cc(C)ccc1Oc1ccc(S(=O)(=O)Nc2ccc(F)cn2)cc1C#N` [Example 138, 3-cyano-4-(2-ethoxy-4-methylphenoxy)-N-(5-fluoropyridin-2-yl)benzenesulfonamide], the IC50 was determined as 9210 nM. Against the preceding compound, the IC50 is about 24-fold higher. In the case of `N#Cc1ccc(Oc2ccc(S(=O)(=O)Nc3cccnc3)cc2C#N)cc1Cl` [Example 92, 4-(3-chloro-4-cyanophenoxy)-3-cyano-N-(pyridin-3-yl)benzenesulfonamide], the IC50 came to 414 nM. In the case of `N#Cc1cc(S(=O)(=O)Nc2ccc(F)cn2)ccc1Oc1ccc(Cl)c(F)c1` [Example 55, 4-(4-chloro-3-fluorophenoxy)-3-cyano-N-(5-fluoropyridin-2-yl)benzenesulfonamide] it was 129 nM; in that of `N#Cc1cc(S(=O)(=O)Nc2ccc(F)cn2)ccc1Oc1ccc(F)cc1Cl` [Example 31, 4-(2-chloro-4-fluorophenoxy)-3-cyano-N-(5-fluoropyridin-2-yl)benzenesulfonamide], 78 nM.

With `O=S(=O)(Nc1ccc(F)cn1)c1ccc(Oc2cnc(CO)c(Cl)c2)cc1F` [compound 239, 4-{[5-chloro-6-(hydroxymethyl)pyridin-3-yl]oxy}-2-fluoro-N-(5-fluoropyridin-2-yl)benzenesulfonamide], the IC50 turned out to be 2 nM. In turn, `O=S(=O)(Nc1cccnn1)c1ccc(Oc2ccc(Cl)cc2OC(F)F)c(Cl)c1` [Example 84, 3-chloro-4-[4-chloro-2-(difluoromethoxy)phenoxy]-N-(pyridazin-3-yl)benzenesulfonamide] showed an IC50 of more than 8870 nM. In the case of `N#Cc1cc(S(=O)(=O)Nc2ccc(F)cn2)ccc1Oc1ccc(F)c(Cl)c1Cl` [Example 38, 3-cyano-4-(2,3-dichloro-4-fluorophenoxy)-N-(5-fluoropyridin-2-yl)benzenesulfonamide] it was 55 nM; in that of `CC(C)c1ncc(Oc2ccc(S(=O)(=O)Nc3ccc(F)cn3)cc2C#N)cc1Cl` [Example 117, 4-{[5-chloro-6-(propan-2-yl)pyridin-3-yl]oxy}-3-cyano-N-(5-fluoropyridin-2-yl)benzenesulfonamide], more than 10000 nM. In the case of `Cc1ccc(Cl)c(C)c1Oc1ccc(S(=O)(=O)Nc2ccc(F)cn2)cc1C#N` [Example 169, 4-(3-chloro-2,6-dimethylphenoxy)-3-cyano-N-(5-fluoropyridin-2-yl)benzenesulfonamide] it was 134 nM.

The compound `N#Cc1cc(S(=O)(=O)Nc2ccc(F)cn2)ccc1Oc1cc(F)c(C#N)c(Cl)c1` [compound 237, 4-(3-chloro-4-cyano-5-fluorophenoxy)-3-cyano-N-(5-fluoropyridin-2-yl)benzenesulfonamide] gave an IC50 of 8 nM. To `COc1cc(F)ccc1Oc1ccc(S(=O)(=O)Nc2ccc(F)cn2)cc1C#N` [Example 160, 3-cyano-4-(4-fluoro-2-methoxyphenoxy)-N-(5-fluoropyridin-2-yl)benzenesulfonamide] belongs more than 10000 nM; to `N#Cc1ccc(Oc2ccc(S(=O)(=O)Nc3ccc(F)cn3)cc2C#N)c(Cl)c1` [Example 30, 4-(2-chloro-4-cyanophenoxy)-3-cyano-N-(5-fluoropyridin-2-yl)benzenesulfonamide], 183 nM. As for `N#Cc1cc(S(=O)(=O)Nc2ccc(F)cn2)ccc1Oc1ccc(C(F)(F)F)cc1` [Example 54, 3-cyano-N-(5-fluoropyridin-2-yl)-4-[4-(trifluoromethyl)phenoxy]benzenesulfonamide], the IC50 was more than 10000 nM. `N#Cc1cc(S(=O)(=O)Nc2ccc(F)cn2)ccc1Oc1c(F)cccc1F` [Example 124, 3-cyano-4-(2,6-difluorophenoxy)-N-(5-fluoropyridin-2-yl)benzenesulfonamide] came in with an IC50 of more than 10000 nM. In the case of `N#Cc1cc(S(=O)(=O)Nc2ccc(F)cn2)ccc1Oc1cccc(C(F)(F)F)c1` [Example 23, 3-cyano-N-(5-fluoropyridin-2-yl)-4-[3-(trifluoromethyl)phenoxy]benzenesulfonamide] it was more than 10000 nM. To `COc1cc(C)ccc1Oc1ccc(S(=O)(=O)Nc2ccc(F)cn2)cc1C#N` [Example 140, 3-cyano-N-(5-fluoropyridin-2-yl)-4-(2-methoxy-4-methylphenoxy)benzenesulfonamide] belongs more than 10000 nM; to `CC(C)(C)c1cc(Oc2ccc(S(=O)(=O)Nc3ccc(F)cn3)cc2C#N)ccc1C#N` [Example 161, 4-(3-tert-butyl-4-cyanophenoxy)-3-cyano-N-(5-fluoropyridin-2-yl)benzenesulfonamide], more than 10000 nM; to `N#Cc1cncc(Oc2ccc(S(=O)(=O)Nc3ccc(F)cn3)cc2C#N)c1` [Example 206, 3-cyano-4-[(5-cyanopyridin-3-yl)oxy]-N-(5-fluoropyridin-2-yl)benzenesulfonamide], 1080 nM.

For the compound `Cc1cc(Oc2ccc(S(=O)(=O)Nc3ccc(F)cn3)cc2C#N)ccc1C(C)C` [Example 139, 3-cyano-N-(5-fluoropyridin-2-yl)-4-[3-methyl-4-(propan-2-yl)phenoxy]benzenesulfonamide], the IC50 was more than 10000 nM.

With `CC(C)(C)c1ccc(Oc2ccc(S(=O)(=O)Nc3ccc(F)cn3)cc2C#N)cc1` [Example 137, 4-(4-tert-butylphenoxy)-3-cyano-N-(5-fluoropyridin-2-yl)benzenesulfonamide], the IC50 was more than 10000 nM. `Cc1cc(Cl)ccc1Oc1ccc(S(=O)(=O)Nc2ccc(F)cn2)cc1C#N` [Example 5, 4-(4-chloro-2-methylphenoxy)-3-cyano-N-(5-fluoropyridin-2-yl)benzenesulfonamide]: the IC50 stood at 148 nM. To `Cc1ncc(Oc2ccc(S(=O)(=O)Nc3ccc(F)cn3)cc2C#N)cc1Cl` [compound 238] belongs 88 nM; to `N#Cc1ccc(Oc2cc(F)c(S(=O)(=O)Nc3cccnn3)cc2Cl)cc1Cl` [compound 227], more than 10000 nM. In the case of `N#Cc1cc(S(=O)(=O)Nc2ccc(F)cn2)ccc1Oc1ccc(Cl)cc1I` [Example 58, 4-(4-chloro-2-iodophenoxy)-3-cyano-N-(5-fluoropyridin-2-yl)benzenesulfonamide] it was 287 nM; in that of `COc1ccc(C)cc1Oc1ccc(S(=O)(=O)Nc2ccc(F)cn2)cc1C#N` [Example 155, 3-cyano-N-(5-fluoropyridin-2-yl)-4-(2-methoxy-5-methylphenoxy)benzenesulfonamide], 191 nM; in that of `N#Cc1cc(S(=O)(=O)Nc2ccc(F)cn2)ccc1Oc1ccccc1OC(F)(F)F` [Example 27, 3-cyano-N-(5-fluoropyridin-2-yl)-4-[2-(trifluoromethoxy)phenoxy]benzenesulfonamide], 274 nM.

For `Cc1ccc(Oc2ccc(S(=O)(=O)Nc3ccc(F)cn3)cc2C#N)cc1` [Example 191, 3-cyano-N-(5-fluoropyridin-2-yl)-4-(4-methylphenoxy)benzenesulfonamide], the IC50 turned out to be 1990 nM. In the case of `Cc1ccc(F)cc1Oc1ccc(S(=O)(=O)Nc2ccc(F)cn2)cc1C#N` [Example 21, 3-cyano-4-(5-fluoro-2-methylphenoxy)-N-(5-fluoropyridin-2-yl)benzenesulfonamide] it was 84 nM. In the case of `Cc1ccc(Oc2ccc(S(=O)(=O)Nc3ccc(F)cn3)cc2C#N)cc1C#N` [Example 59, 3-cyano-4-(3-cyano-4-methylphenoxy)-N-(5-fluoropyridin-2-yl)benzenesulfonamide] it was more than 10000 nM. The compound `N#Cc1ccc(Oc2ccc(S(=O)(=O)Nc3ccc(F)cn3)cc2Cl)cc1F` [compound 228] showed an IC50 of 244 nM.
